The source of these data is PubChem BioAssay (NCI).

Among the test systems are HCC-2998 colon; IGROV1 ovarian; SNB-19 CNS; MOLT-4 leukemia; OVCAR-4 ovarian; KM12 colon; SK-MEL-2 melanoma; SF-268 CNS; HT29 colon; HS 578T breast.
What all share (assay): NCI anticancer screen, dose series, 48 h

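All cell lines were grown in 96-well plates and treated with compound for 48 hours. The concentration for 50% growth inhibition is given as GI50. At the TGI there is no net growth.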

`Cc1ccc2c(-c3ccnc(Nc4cccc(C(F)(F)F)c4)n3)c(-c3ccccc3)nn2n1`: the GI50 in the assay with HCC-2998 colon is 5.99 µM; in the assay on IGROV1 ovarian, 2.1 µM; with SNB-19 CNS, above 17.9 µM; in the assay with MOLT-4 leukemia, above 25 µM; in the assay with OVCAR-4 ovarian, 12 µM; with KM12 colon, 11.1 µM. Further, the GI50 in the assay with SK-MEL-2 melanoma was 6.28 µM; in the assay on SF-268 CNS, above 15.2 µM; in the assay on HT29 colon it was 2.28 µM; in the assay on HS 578T breast, 7.13 µM. Besides, the TGI in the assay on HCC-2998 colon is 16.1 µM; in the assay on IGROV1 ovarian it was 24.4 µM; with SNB-19 CNS, above 25 µM; in the assay on MOLT-4 leukemia, above 25 µM; in the assay on OVCAR-4 ovarian it was above 25 µM; in the assay with KM12 colon, above 18.3 µM. Also, the TGI in the assay with SK-MEL-2 melanoma was 14.3 µM; in the assay with SF-268 CNS, above 25 µM; in the assay on HT29 colon it was above 15.5 µM; in the assay on HS 578T breast it was above 25 µM.

For the compound `CN(C)C/C=C/C(=O)Nc1ccc(C(=O)Nc2cccc(Nc3ncc(Cl)c(-c4c[nH]c5ccccc45)n3)c2)cc1`, the GI50 in the assay on HCC-2998 colon was 0.0154 µM; with IGROV1 ovarian it was 0.0251 µM; with SNB-19 CNS it was 0.0272 µM; with MOLT-4 leukemia it was 0.032 µM; in the assay with OVCAR-4 ovarian it was 0.021 µM; in the assay with KM12 colon, 0.0747 µM. Moreover, the figures for the GI50 in the assay with SK-MEL-2 melanoma, in the assay with HT29 colon and with HS 578T breast were 0.021 µM, 0.0385 µM and 0.0363 µM, respectively. The TGI in the assay on HCC-2998 colon is 0.203 µM; with SNB-19 CNS, above 35.3 µM; in the assay with MOLT-4 leukemia, above 100 µM; with KM12 colon, 0.232 µM; in the assay on SK-MEL-2 melanoma, 0.0682 µM; in the assay with HT29 colon, 0.678 µM. Further, the TGI in the assay on HS 578T breast was determined as 0.195 µM.

In the case of `CCN1C[C@@H](C)n2c(c(O)c3c(=O)n(Cc4ccc(F)c(Cl)c4)nc(C(=O)NC)c32)C1=O`, the GI50 in the assay on HCC-2998 colon is 2.54 µM; with IGROV1 ovarian, 3.74 µM; in the assay with SNB-19 CNS, 3.37 µM; in the assay with MOLT-4 leukemia, 4.18 µM; with OVCAR-4 ovarian, 3.18 µM; in the assay on KM12 colon, 2.73 µM. Moreover, the GI50 in the assay on SK-MEL-2 melanoma was 2.11 µM; with SF-268 CNS, 3.4 µM; in the assay with HT29 colon, 3.9 µM; in the assay on HS 578T breast it was 2.48 µM. The TGI was 6.08 µM in the assay on HCC-2998 colon; above 100 µM in the assay with IGROV1 ovarian; above 100 µM with SNB-19 CNS; above 100 µM with MOLT-4 leukemia; 44.6 µM in the assay on OVCAR-4 ovarian; 7.71 µM in the assay with KM12 colon. The TGI was determined as 4.53 µM with SK-MEL-2 melanoma, 39.8 µM with SF-268 CNS, 15.5 µM with HT29 colon and 7.42 µM in the assay with HS 578T breast.

In the case of `Oc1c(Cl)cc(Cl)c(Cl)c1Cc1c(O)c(Cl)cc(Cl)c1Cl`, the GI50 was 0.584 µM in the assay with HCC-2998 colon; 1.87 µM in the assay on IGROV1 ovarian; 0.908 µM in the assay on SNB-19 CNS; 1.31 µM with MOLT-4 leukemia; 2.52 µM with OVCAR-4 ovarian; 0.953 µM in the assay with KM12 colon. Besides, the GI50 with SK-MEL-2 melanoma is 0.497 µM; in the assay with SF-268 CNS, 1.08 µM; with HT29 colon it was 2.81 µM; in the assay with HS 578T breast, 1.03 µM. In addition, the TGI in the assay on HCC-2998 colon amounted to 12.9 µM; with IGROV1 ovarian, 23.6 µM; in the assay on SNB-19 CNS it was 58.9 µM; in the assay on MOLT-4 leukemia, 36.1 µM; in the assay on OVCAR-4 ovarian, 14 µM; in the assay on KM12 colon, 11.5 µM. The TGI is 3.48 µM in the assay on SK-MEL-2 melanoma, 17.5 µM in the assay on SF-268 CNS, 12.4 µM in the assay with HT29 colon and 51.3 µM with HS 578T breast.

As for `COc1cc(C2C=C(C)N=C3SC=C(C)N32)cc(OC)c1OC` (stereo not drawn), the GI50 in the assay on HCC-2998 colon is 1.94 µM; with IGROV1 ovarian, 2.22 µM; in the assay on SNB-19 CNS, 2.32 µM; in the assay with MOLT-4 leukemia, 0.445 µM; in the assay with OVCAR-4 ovarian it was 3.99 µM; in the assay with KM12 colon, 1.33 µM. Also, the results for the GI50 in the assay with SK-MEL-2 melanoma, with SF-268 CNS and in the assay with HS 578T breast were 2.04 µM, 1.4 µM and 2.95 µM, respectively. Further, the TGI in the assay with HCC-2998 colon is 3.54 µM; with IGROV1 ovarian, 7.3 µM; in the assay with SNB-19 CNS, 15.8 µM; in the assay with MOLT-4 leukemia, above 100 µM; in the assay with OVCAR-4 ovarian it was above 100 µM; with KM12 colon, 4.55 µM. For the same compound, the TGI in the assay on SK-MEL-2 melanoma is 4.94 µM; with SF-268 CNS it was 11.4 µM; in the assay with HS 578T breast, 74.2 µM.

For `NC(=O)NC(=O)Nc1ccc(Br)cc1`, the TGI in the assay with HCC-2998 colon was above 31.9 µM; in the assay with IGROV1 ovarian it was above 100 µM; in the assay with SNB-19 CNS, above 39.3 µM; in the assay on MOLT-4 leukemia it was above 100 µM; in the assay on OVCAR-4 ovarian, above 38.5 µM; in the assay on KM12 colon, above 32.8 µM. In addition, the TGI was above 20.7 µM in the assay on SK-MEL-2 melanoma, above 16.5 µM in the assay on SF-268 CNS and above 100 µM in the assay on HS 578T breast.
